Results taken from article PMC10295666 (Bioengineering, 2023).
Positions of bridges follow the written chain, without caps; N, C: chain ends. Residues, ends and D or L forms follow the SMILES beside them. No end group written: not given here.

How the values were obtained:
[1] = system: normal human liver cell line 7701; assay: Toxicity on normal liver cells; assay type: cell-based; settings: QSG-7701 cells
Method: Normal human liver cells QSG-7701 and Hepatocellular Carcinoma Cell lines 7721, Huh7, MHCC97H, MHCC97L, and HepG2 were all obtained from the Institute of Biomedical Sciences, Jinan University. All cells were cultured in DMEM medium (Gibco, Grand Island, NE, USA) supplemented with 10% fetal bovine serum (Gibco, Grand Island, NE, USA). The cell lines were incubated in a humidified atmosphere with 5% CO2 at 37 °C.
Cells in the logarithmic growth phase with good viability were seeded into 96-well plates at a density of 2500 cells per well and incubated for 24 h at 37 °C with 5% CO2. The old medium was removed, and the cells were starved with DMEM medium containing 0.5% FBS for 24 h. Peptides were diluted with 0.5% starved medium to different concentrations and added to each well with the same volume. The cells were then incubated for an additional 48 h at 37 °C. After removing the medium, 100 μL of CCK-8 working solution was added to each well, and the plate was incubated for 1 h at 37 °C with 5% CO2. Finally, the absorbance at 450 nm of each well was measured using a multifunctional microplate reader. Cell viability (%) was equal to (Asample − Ablank)/(Acontrol − Ablank) × 100%. […]
Cells in the logarithmic growth phase were seeded at a density of 1000 cells per well in 6-well plates and cultured for 24 h. […] After air-drying the plate, the colonies were photographed and counted.

[2] = serum obtained from healthy individuals; settings: 37 °C, up to 1440 min
[3] = system: MHCC97L transplant tumors; assay: MHCC97L subcutaneous xenograft model; settings: 25 mg/kg tail vein injection, monitored every two days for 14 days, n = 4
Method: Male BALB/c-nude mice were purchased from Guangdong GemPharmatech Co., Ltd. These mice were fed with food and purified water at room temperature in the SPF laboratory. MHCC97L cells (0.1 mL of physiological saline containing 1 × 10^7 cells) were subcutaneously injected into the armpit of 5-week-old male BALB/c-nude mice. Tumor volume and weight were measured every 2 days, and tumor volume was calculated using the following formula: (short axis)^2 × (long axis)/2. When the tumor volume reached approximately 50 mm^3, these mice were weighed and randomly divided into 3 groups (n = 4): the model group, the SAIF group (25 mg/kg), and the ctSAIF group (25 mg/kg). SAIF and ctSAIF were administered via tail vein injection at a dose of 25 mg/kg. The peptide was dissolved in saline solution to 5 mg/mL, and the dosage volume of each mouse was calculated using the following formula: (25 mg/kg × body weight)/(5 mg/mL). After 14 days of treatment, the mice were sacrificed, and the tumors were collected for histopathological examination.

[4] = In vitro serum stability assay of peptides (HPLC-UV / LC-MS); assay type: in vitro ADME; settings: human; serum from healthy individuals mixed with peptide 9:1, peptide 1 mg/mL, 37 °C, 0-1440 min, 10% TFA precipitation, HPLC-UV (C18) peak area
Method: The serum obtained from healthy individuals was centrifuged at a low speed and mixed with peptides at a ratio of 9:1 to achieve a peptide concentration of 1 mg/mL. The peptide–serum mixture was then incubated at 37 °C for different periods. After reaching the pre-determined time point (0, 10, 20, 30, 60, 120, 240, 480, 960, or 1440 min), pure trifluoroacetic acid was added to each sample to reach a final concentration of 10%. The mixture was then vortexed and centrifuged for 10 min at 13,000 rpm, and the supernatant (10 μL) was collected and stored in HPLC vials for analysis.
HPLC-UV analysis was performed using a C18 analytical column (Thermo Acclaim300 C18 LC ColuMns, 4.6 mm diameter, 150 mm length, Catalog #: 060266) and a Waters ACQUITY Arc Bio instrument, following the method shown in Table 1. The target peak was determined based on the retention time of pure peptides, and on this basis, detect peptides were degraded at different times and their peak area recorded to generate a degradation curve. The degradation rate of peptides was equal to (Areasample − Areablank)/(Areacontrol − Areablank) × 100%. The area of the blank was equal to the peak area detected after mixing peptides with ultrapure water at the same initial concentration. The signal-to-noise ratio of all collected data was greater than 10. […]

fragment found [2]	Compound	toxicity on normal human liver cell line 7701 [1]	weight of nude mice during treatment [3]	half-life at 1 mg/mL [4]
–	KEIDDLNLKVFDLKGKFKRPPLKRVRMSADAML [SAIF]	no significant toxicity	–	–
tSAIF (KGKFKRPPLKRVRMSADAML), 2 h	KEIDDLNLKVFDLKGKFKRPPLKRVRMSADAML	–	–	–
–	CSCC[C@@H]1NC(=O)[C@H](C)NC(=O)[C@H](CC(=O)O)NC(=O)[C@H](C)NC(=O)[C@H](CO)NC(=O)[C@H](CCSC)NC(=O)[C@H](CCCNC(=N)N)NC(=O)[C@H](C(C)C)NC(=O)[C@H](CCCNC(=N)N)NC(=O)[C@H](CCCCN)NC(=O)[C@H](CC(C)C)NC(=O)[C@@H]2CCCN2C(=O)[C@@H]2CCCN2C(=O)[C@H](CCCNC(=N)N)NC(=O)[C@H](CCCCN)NC(=O)[C@H](Cc2ccccc2)NC(=O)[C@H](CCCCN)NC(=O)CNC(=O)[C@H](CCCCN)NC(=O)[C@@H](N)CSSC[C@@H](C(=O)O)NC(=O)[C@H](CC(C)C)NC1=O [ctSAIF] (H-CKGKFKRPPLKRVRMSADAMLC-OH; disulfide 1-22)	no significant toxicity	no significant changes	~6 h
